Values after ≈ are worked out from the molar mass of the structure shown. Like-named read-outs stand apart in the source and are kept apart here.

The test system of one data set is Phytophthora infestans. The format is in vivo, Phytophthora infestans (on tomatoes).
In another data set the test system is Alternaria solani. Description: Reducing infestation on tomatoes, early blight. The format is in vivo, Alternaria solani (on tomatoes).
In a further data set the test system is Haemophilus gallinarum. Description: Agar plate minimum inhibitory concentration. In kind it is cell-based. The conditions noted are these: Avibacterium paragallinarum, nutrient agar, 48 hours at 37°C., complete inhibition. As for the experimental part: (§1) The following procedure for antibacterial evaluation was used. Test compounds were dissolved in a suitable solvent (typically dimethyl sulfoxide or acetone) and incorporated in a nutrient agar at various concentrations. The plates were then streaked with cultures of the appropriate bacteria. The inoculum contained about 8 × 10^8 organisms per milliliter. After incubation for 48 hours at 37°C., the plates were examined for evidence of growth of the microorganisms. The minimum concentration necessary for complete inhibition of growth was noted.

A further data set deals with Salmonella choleresuis. Description: Agar plate minimum inhibitory concentration. In kind it is cell-based. The conditions noted are these: 48 h, read-out: Minimum Inhibitory Concentration. As for the experimental part: as §1
The next data set has as its system Salmonella gallinarum. In words: Agar plate minimum inhibitory concentration. In kind it is cell-based. The conditions noted are these: Salmonella enterica, nutrient agar, 48 hours at 37°C., complete inhibition. As for the experimental part:
as §1

Another data set concerns Staphylococcus aureaus. In words: Agar plate minimum inhibitory concentration. In kind it is cell-based. The conditions noted are these: 48 h, read-out: Minimum Inhibitory Concentration. The method, then: as §1
Another data set deals with Streptococcus foecalis. Description: Agar plate minimum inhibitory concentration. The format is cell-based. The conditions noted are these: 48 h, read-out: Minimum Inhibitory Concentration. As for the experimental part: as §1
In a further data set the test system is Escherichia coli. Description: Agar plate minimum inhibitory concentration. The format is cell-based. The conditions noted are these: nutrient agar, 48 hours at 37°C., complete inhibition. As for the experimental part:
as §1

In the next data set the test system is Fasciola hepatica. In words: Test for activity against liver flukes, Fasciola hepatica, in infected sheep. The format is in vivo. The method, then:
(§2) Test for activity against liver flukes were conducted as follows:
(§3) Eggs of Fasciola hepatica were collected from the bile of donor sheep. The eggs were embryonated and snails were infected (the genus Lymnaea serves as intermediate host) to produce Metacercariae which are the infective forms for sheep. Each sheep was infected with 250 metacercariae intraruminally. When the infection became patent in ca. 80 days, egg counts were carried out to determine the degree of worm burden. The liver was processed to recover F. hepatica in the untreated and treated sheep.
(§4) The data of the tables were generated using procedures previously described. The compounds tested are disubstituted and, except for Example 50 which is dibromo, are dichloro. Where the position for the substituents is other than 2' and 4', it is indicated. Under the indicated microorganisms, the values given in this and the following tables, should be read as: percentage of microorganism killed/dose in milligrams per kilogram of body weight. Under "Tolerance", the term "Tol." means "tolerated", "Tox." means "toxic", and "Sym." means "symptoms of toxic reaction", all at the dosage value which follows. It will be appreciated that there is no sharp toxicity end point in determining toxicity to living sheep.

A further data set relates to Haemonchus contortus. In words: Percent of Haemonchus destroyed or expelled in infected sheep (egg count after treatment). The format is in vivo, Haemonchus contortus (in sheep). The conditions noted are these: for inhibition in vivo at 15 mg/kg / inhibition in vivo at 2 mg/kg / inhibition in vivo at 5 mg/kg: Haemonchus contortus. As for the experimental part: Two groups of sheep were used in the tests. One group was used as a non-medicated control, while the other group was treated with the compound under investigation. Helminth-free young lambs were infected with about 10,000 filariform larvae of Haemonchus contortus. In three weeks when the infection became apparent, egg counts were made to determine the density of the worm burden.
The egg count was carried out using the following modified Stoll method. Three grams of sheep feces were taken rectally from each animal and placed in a Stoll flask. To each flask, tap water was added to the top line. The fecal pellets were too hard to break down, the flasks were closed with rubber stoppers and kept in the refrigerator for several hours. The flasks were thoroughly shaken and a 1 ml. sample was drawn from the middle using a wide mouth pipette. This 1 ml. sample was transferred to an 8 ml. plastic tube, to which enough saturated sodium chloride solution was added to reach the rim. The tubes were then centrifuged for 10 minutes at 1500 r.p.m. Then sodium chloride solution was added with a medicine dropper forming a concave miniscus. A cover glass was carefully added and the tubes were kept in a refrigerator for ten to twenty minutes. During that period, the nematode ova flowed upward and adhered to the bottom of the cover glass slip. At the end of the 20-minute period, the cover slip was carefully detached from the miniscus and transferred to a microscopic slide. The ova were then counted under a microscope equipped with 10X ocular and 10X objective lens. Each ovum under the microscope represented 20 ova in the sample.
Animals with sufficiently high egg counts were taken out of the pool and housed in experimental pens. Since the salicylanilides of the present invention are water insoluble, the compounds were first ground using a mortar and pestle and then were placed in a carboxymethyl cellulose solution. The particles were further micronized ultrasonically. The compound was then administered to two or three animals by Oesophageal gavage. Control, untreated animals, received only the carboxymethyl cellulose solution in a similar manner. On the sixth and seventh day after treatment, fecal pellets were taken from the rectum of the control as well as the treated animals and egg counts were made.
(§5) The results of tests on sheep in a manner described, supra, using compounds of the present invention are given in Table 1, Examples 5 through 13. The numbers in the column headed "Haemonchus (15 mg/kg)" refer to the percent of parasites destroyed or expelled when the indicated compound was introduced into the rumen of sheep at a dosage of 15 milligrams per kilogram of body weight. The values under "Tolerance (mg/kg)" refer to the highest test dosage in the milligrams of anthelmintic per kilogram of body weight at which the sheep developed no toxic symptoms. "Tol." is an abbreviation for "tolerated". The symbols R1 and R2 refer to those of Formula I in these and other following examples.
as §4

Data set [1] concerns liver flukes of the genus Fasciola. In words: Utility against liver flukes of the genus Fasciola in sheep (oral). In kind it is in vivo. As for the experimental part:
as §2, §3
The compounds of this invention also have utility against liver flukes.

Data set [2] concerns Trichophyton mentagrophytes. Description: Inhibition of fungus on Sabouraud agar. In kind it is cell-based. The conditions noted are these: 120 hours at 25°C., read-out: inhibitory concentration. As for the experimental part:
as §1
For testing against the fungus Trichophyton the same procedure was used, except that the test medium was Sabouraud agar, and the plates were cultured for 120 hours at 25°C. before evaluation for evidence of growth. The inoculum added to the culture media contained about 5 × 10^6 spores in a water suspension containing 0.1% peptone.

Data set [3] is described as follows: Tolerance / toxicity in sheep. In kind it is in vivo. Details: key to Tolerance at 100 mg/kg / Tolerance at 50 mg/kg: "toxic" refers to death of sheep resulting from the use of the indicated compound at the indicated dosage; key to Tolerance: Tol.: tolerated; Tox.: toxic; Sym.: symptoms of toxic reaction. The conditions noted are these: in vivo, Table 1, read-out: Tolerance, highest test dosage at which the sheep developed no toxic symptoms. The method, then: as §5
(§6) The importance of the 2',4' substitution on the anilide moiety of Formula I is illustrated by the case of the dichloro substitution as summarized in Table III. […] This has been mentioned briefly hereinabove. As used herein, "toxic" refers to death of sheep resulting from the use of the indicated compound at the indicated dosage.
as §4

Data set [4] concerns Haemonchus and Fasciola hepatica. Description: Dual activity against Haemonchus and Fasciola in sheep and therapeutic ratio. The format is in vivo. The conditions noted are these: sheep, 5 mg./kg.
The test system of another data set is sheep. In words: Tolerance / toxicity in sheep. The format is in vivo. Details: key to Tolerance at 100 mg/kg / Tolerance at 50 mg/kg: "toxic" refers to death of sheep resulting from the use of the indicated compound at the indicated dosage; key to Tolerance: Tol.: tolerated; Tox.: toxic; Sym.: symptoms of toxic reaction. The method, then: as §5, §6, §4
Setting [5] is: Fasciola hepatica, sheep, 5 mg/kg, Tables VIII-XI, read-out: Fasciola hepatica, percentage of microorganism killed.
Where [6] appears, read: Fasciola hepatica, sheep, Tables VIII-XI, read-out: Fasciola hepatica, percentage of microorganism killed.
Setting [7] is: sheep, 15 mg/kg, Table V, read-out: Effectiveness at 15 mg/kg against Haemonchus.
Setting [8] is: sheep, 15 mg/kg, Tables VIII-XI, read-out: Haemonchus, percentage of microorganism killed.
The mark [9] stands for this setting: sheep, into rumen, 15 mg/kg, Table 1.
Setting [10] is: sheep, Tables VIII-XI, read-out: Haemonchus, percentage of microorganism killed.
The mark [11] stands for this setting: sheep, 5 mg/kg, Tables VIII-XI, read-out: Haemonchus, percentage of microorganism killed.

`Cc1c([N+](=O)[O-])cc(C(C)(C)C)c(O)c1C(=O)Nc1ccc(Br)cc1` [Example 8, 4'-bromo-3-tert. butyl-6-methyl-5-nitrosalicylanilide]: in the data set on Phytophthora infestans, the “reducing infestation on tomatoes, late blight” value was “effective in reducing infestation”. Moreover, in the data set with Alternaria solani, the “reducing infestation on tomatoes, early blight” value is listed as “effective in reducing infestation”. The MIC was found to be 8 µg/mL (≈ 19.6 µM) with Haemophilus gallinarum; 64 µg/mL (≈ 157 µM) with Salmonella choleresuis; 64 µg/mL (≈ 157 µM) in the data set on Salmonella gallinarum; 1 µg/mL (≈ 2.46 µM) with Staphylococcus aureaus; 64 µg/mL (≈ 157 µM) in the data set on Streptococcus foecalis; 64 µg/mL (≈ 157 µM) in the data set with Escherichia coli. The inhibition in vivo at 5 mg/kg in the data set with Fasciola hepatica (setting [5]) worked out at 0%. Also, the results for the inhibition in vivo at 15 mg/kg with Fasciola hepatica (setting [6]), in the data set on Haemonchus contortus (setting [7]) and in the data set with Haemonchus contortus (setting [8]) were 100%, 61% and 61%, respectively. Also, the “Haemonchus (15 mg/kg), percent of parasites destroyed or expelled” value (“Haemonchus (15 mg/kg), percent” for short) in the data set on Haemonchus contortus (setting [9]) turned out to be 61%.

In the case of `Cc1c([N+](=O)[O-])cc(C(C)(C)C)c(O)c1C(=O)Nc1ccc(Cl)cc1` [Example 7, 3-tert. butyl-4'-chloro-6-methyl-5-nitrosalicylanilide], the “effect against liver flukes” value in data set [1] (15 mg/kg) is given as “efficacious”. Further, in [2], the MIC was 1 µg/mL (≈ 2.76 µM). For the same compound, the NOAEL in data set [3] was 15 to 50 mg/kg. For the same compound, the inhibition in vivo at 2 mg/kg in the data set with Fasciola hepatica (setting [6]) and in the data set with Haemonchus contortus (setting [10]) was 0% throughout. The inhibition in vivo at 5 mg/kg in the data set on Fasciola hepatica (setting [5]) was found to be 50%; in the data set on Haemonchus contortus (setting [11]), 65%. In addition, the figures for the inhibition in vivo at 15 mg/kg in the data set with Fasciola hepatica (setting [6]), in the data set on Haemonchus contortus (setting [7]) and with Haemonchus contortus (setting [8]) were 100%, 81% and 81%, respectively. Besides, the “Haemonchus (2 mg/kg), percent of parasites destroyed or expelled” value in the data set with Haemonchus contortus (sheep, into rumen, Table 1) came to 0%. For the same compound, the “Haemonchus (5 mg/kg), percent of parasites destroyed or expelled” value in the data set on Haemonchus contortus (sheep, into rumen, 5 mg/kg, Table 1) is 65%. Also, the “Haemonchus (15 mg/kg), percent” value with Haemonchus contortus (setting [9]) is on record as 81%.

Take `Cc1c([N+](=O)[O-])cc(C(C)(C)C)c(O)c1C(=O)Nc1ccc(Cl)cc1Cl` [Example 5, 3-tert. butyl-2', 4'-dichloro-6-methyl-5-nitrosalicylanilide]: in [1] (oral, 5 mg/kg, within three days), the “effect against (mature) liver flukes” value was “completely destroyed all flukes”. The “dual activity against both Haemonchus and Fasciola” value in data set [4] was determined as 100%. In addition, the Tolerance result is recorded as “Tol” in the data set with sheep (50 mg./kg., Tables VIII-X) and “Sym” in the data set on sheep (100 mg./kg., Tables VIII, IX). For the same compound, the “Tolerance at 50 mg/kg” value with sheep (50 mg/kg, Tables III and IV) was “nontoxic”. Moreover, the “Tolerance at 100 mg/kg” value in the data set with sheep (100 mg/kg, Tables III and IV) is listed as “toxic”. For the same compound, in data set [3], the NOAEL fell in the range of 50 to 100 mg/kg. Besides, the inhibition in vivo at 5 mg/kg in the data set with Fasciola hepatica (Fasciola hepatica, read-out: Fasciola hepatica, percentage of microorganism killed) worked out at 100%; with Haemonchus contortus (setting [11]) it was 100%. Also, the inhibition in vivo at 1 mg/kg in the data set on Fasciola hepatica (Fasciola hepatica, sheep, 1 mg/kg, Tables VIII and X, read-out: Fasciola hepatica, percentage of microorganism killed) amounted to 44%. Also, the results for the inhibition in vivo at 2 mg/kg with Fasciola hepatica (setting [6]) and in the data set on Haemonchus contortus (setting [10]) were 99% and 14%, respectively. Also, in the data set with Fasciola hepatica (sheep), the “dose ratio: times less than the dose at which the 2',5' dichloro compound had no activity (Fasciola)” value amounted to 2.5 times. Moreover, the “effective against Fasciola” value in the data set with Fasciola hepatica (sheep, dose 2.5 times less than that at which the 2',5' dichloro compound had no activity) stood at 99%. Besides, the inhibition in vivo at 15 mg/kg was found to be 100% with Haemonchus contortus (iv, sheep, 15 mg/kg, Tables III and IV, read-out: Effectiveness (%) at 15 mg/kg); 100% with Haemonchus contortus (read-out: Haemonchus, percentage of microorganism killed, sheep, 15 mg/kg, Tables VIII-XI). In addition, the “activity at 5 mg./kg.” value with Haemonchus contortus (sheep, 5 mg/kg) was determined as 100%. Further, in the data set on Haemonchus contortus (sheep, 5 mg/kg, Tables III and IV), the “Effectiveness (%) at 5 mg/kg” value stood at 100%. In addition, the “Effectiveness at 15 mg/kg against Haemonchus” value in the data set with Haemonchus contortus (sheep, 15 mg/kg, Table VI) amounted to 100%. Moreover, in the data set on Haemonchus contortus (sheep, dose not given), the “effective in killing or expelling Haemonchus” value is listed as 100%. In addition, the “Haemonchus (2 mg/kg), percent of parasites destroyed or expelled” value with Haemonchus contortus (sheep, into rumen, Table 1) amounted to 14%. The “Haemonchus (15 mg/kg), percent” value in the data set on Haemonchus contortus (setting [9]) was 100%.
